Like-named read-outs stand apart in the source and are kept apart here.
Legend:
[1] = test system: female rats; assay: antifatigue effect: rota-rod; format: in vivo, rat; details: Rattus norvegicus, ip, 0.25 h; for responders at 100 mg/kg: read-out: percentage of animals staying on the rota-rod more than 180 seconds, 100 mg/kg i.p.; for responders at 200 mg/kg: read-out: percentage of animals staying on the rota-rod more than 180 seconds, 200 mg/kg i.p.; for responders at 400 mg/kg: read-out: percentage of animals staying on the rota-rod more than 180 seconds, 400 mg/kg i.p.; for responders at 600 mg/kg: read-out: percentage of animals staying on the rota-rod more than 180 seconds, 600 mg/kg i.p.; for responders at 300 mg/kg: read-out: percentage of animals staying on the rota-rod more than 180 seconds, 300 mg/kg i.p.
Method: The antifatigue effect was also examined with the following results. The antifatigue effect was investigated by administering the compounds of the formula (I) according to the present application to female rats intraperitoneally in saline solution and saline solution alone to the controls by the same route. Every 15 minutes (sessions) after treatment, the animals were placed on a 6 cm diameter rod, rotating at 16 r.p.m. The percentage of the animals capable of staying on the rota-rod for a duration of more than 180 seconds was then recorded.

[2] = test system: isolated rat atrium; assay: antiarrhythmic effect, isolated rat atrium method of M. Libonati and G. Segre; details: Rattus norvegicus
[3] = test system: isolated rabbit hearts; assay: cardiokinetic effect on isolated heart (Langendorff): contractile force after anoxia, positive inotropic effect; details: 10 minutes from interruption of anoxic period
Method: (§1) The cardiokinetic effect on isolated heart was also investigated as follows. Rabbit hearts isolated by the Langendorff method were perfused with oxygenized ringer solution at 38.2° C. The isometric contractions, electrocardiogram and coronary flow were recorded using a "Battaglia-Rangoni" polygraph. By removing the oxygen from the perfusion fluid, metabolic damage was induced in the cardia muscle, up to an 80% reduction in the cardiac contractile force.
(§2) Under these conditions of prolonged anoxia the aerobic glycolysis of the myocardium is slowed down, accompanied by the storage of acid catabolites due to both the accumulation of pyruvic acid and its conversion to lactic acid which cannot be utilized because of the depression of pyridine enzymes, such as LDH (lactodehydrogenase). This has repercussions on the anaerobic glycolysis affecting an ever increasing number of enzymes, accompanied by a progressive and increasingly critical exhaustion of the myocardium. Thus a whole series of cardiac muscle fatigue levels occurs which can be observed by the behavior of the examined parameters, namely the contractile force, coronary flow, heart rate and cardiac rhythm. As soon as the contractile force was reduced by 80%, the perfusion fluid was once again oxygenized either without adding other compounds (controls) or with the addition of the compounds under examination.
Table 3 below gives the percentage values of the contractile force of the heart, showing a positive inotropic effect, calculated after 10 minutes from the interruption of the anoxic period (myocardial restoration).

[4] = in vivo; details: mouse, in vivo, iv
Text: The tolerance of acetyl-d,l-carnitine and of the other aforementioned acyl derivatives of the formula (I), as well as their salts were investigated by comparing the LD50 obtained by administering the compounds intravenously in mice with the LD50 obtained under the same experimental conditions by intravenous injection of d,l-carnitine.

[5] = test system: isolated rabbit hearts; assay: coronary vasodilator effect: coronary flow, isolated heart (Langendorff)
Method: as §1, §2

[6] = session 6 (every 15 minutes), * p < 0.05
[7] = read-out: Mean percent variation versus controls: excitability (-%)
[8] = read-out: Mean percent variation versus controls: frequency max (-%)
[9] = read-out: Mean percent variation versus controls: refractory period (+%)
[10] = read-out: Mean percent variation versus controls: rheobase (+%)

CC(=O)OC(CC(=O)[O-])C[N+](C)(C)C (racemic) [acetyl-d,l-carnitine]
responders at 100 mg/kg ([1]; session 1 (every 15 minutes)): 0%
responders at 100 mg/kg ([1]; session 2 (every 15 minutes)): 0%
responders at 100 mg/kg ([1]; session 3 (every 15 minutes)): 0%
responders at 100 mg/kg ([1]; session 4 (every 15 minutes)): 0%
responders at 100 mg/kg ([1]; session 5 (every 15 minutes)): 0%
responders at 100 mg/kg ([1]; session 6 (every 15 minutes)): 10%
responders at 200 mg/kg ([1]; session 1 (every 15 minutes)): 0%
responders at 200 mg/kg ([1]; session 2 (every 15 minutes)): 0%
responders at 200 mg/kg ([1]; session 3 (every 15 minutes)): 0%
responders at 200 mg/kg ([1]; session 4 (every 15 minutes)): 30%
responders at 200 mg/kg ([1]; session 5 (every 15 minutes), * p < 0.05): 50%
responders at 200 mg/kg [1, 6]: 50%
responders at 400 mg/kg ([1]; session 1 (every 15 minutes)): 0%
responders at 400 mg/kg ([1]; session 2 (every 15 minutes)): 10%
responders at 400 mg/kg ([1]; session 3 (every 15 minutes)): 10%
responders at 400 mg/kg ([1]; session 4 (every 15 minutes)): 10%
responders at 400 mg/kg ([1]; session 5 (every 15 minutes)): 40%
responders at 400 mg/kg [1, 6]: 50%
responders at 600 mg/kg ([1]; session 1 (every 15 minutes)): 0%
responders at 600 mg/kg ([1]; session 2 (every 15 minutes)): 0%
responders at 600 mg/kg ([1]; session 3 (every 15 minutes)): 10%
responders at 600 mg/kg ([1]; session 4 (every 15 minutes)): 20%
responders at 600 mg/kg ([1]; session 5 (every 15 minutes)): 40%
responders at 600 mg/kg [1, 6]: 50%
inhibition at 0.001 µg/mL [2, 7]: 7.18%
inhibition at 0.01 µg/mL [2, 7]: 18.6%
inhibition at 0.1 µg/mL [2, 7]: 71%
inhibition at 0.001 µg/mL [2, 8]: 6.08%
inhibition at 0.01 µg/mL [2, 8]: 15%
inhibition at 0.1 µg/mL [2, 8]: 23.6%
activation at 0.001 µg/mL [2, 9]: 14.5%
activation at 0.01 µg/mL [2, 9]: 16.8%
activation at 0.1 µg/mL [2, 9]: 27.4%
activation at 0.001 µg/mL [2, 10]: 3.32%
activation at 0.01 µg/mL [2, 10]: 15.3%
activation at 0.1 µg/mL [2, 10]: 21.7%
Contractile force, Mean ± S.E. ([3]; 1·10^-5 g/lt): 77.5 ± 3.29%
Contractile force, Mean ± S.E. ([3]; 1·10^-6 g/lt): 32.5 ± 4.38%
Contractile force, Mean ± S.E. ([3]; 5·10^-6 g/lt): 42.9 ± 6.22%
LD50 [4]: ~770 mg/kg
Coronary flow, Mean ± S.E. ([5]; 1·10^-5 g/lt): 90.05 ± 7.10%
Coronary flow, Mean ± S.E. ([5]; 1·10^-6 g/lt): 75.80 ± 5.92%
Coronary flow, Mean ± S.E. ([5]; 5·10^-6 g/lt): 76.30 ± 11.9%

CCCCCCCCCCCCCCCC(=O)OC(CC(=O)[O-])C[N+](C)(C)C (racemic) [palmitoyl-d,l-carnitine]
responders at 300 mg/kg ([1]; session 1 (every 15 minutes)): 0%
responders at 300 mg/kg ([1]; session 2 (every 15 minutes)): 0%
responders at 300 mg/kg ([1]; session 3 (every 15 minutes)): 0%
responders at 300 mg/kg ([1]; session 4 (every 15 minutes)): 0%
responders at 300 mg/kg ([1]; session 5 (every 15 minutes)): 10%
responders at 300 mg/kg ([1]; session 6 (every 15 minutes)): 10%
responders at 400 mg/kg ([1]; session 1 (every 15 minutes)): 0%
responders at 400 mg/kg ([1]; session 2 (every 15 minutes)): 0%
responders at 400 mg/kg ([1]; session 3 (every 15 minutes)): 0%
responders at 400 mg/kg ([1]; session 4 (every 15 minutes)): 10%
responders at 400 mg/kg ([1]; session 5 (every 15 minutes)): 20%
responders at 400 mg/kg [1, 6]: 20%
responders at 600 mg/kg ([1]; session 1 (every 15 minutes)): 0%
responders at 600 mg/kg ([1]; session 2 (every 15 minutes)): 0%
responders at 600 mg/kg ([1]; session 3 (every 15 minutes)): 0%
responders at 600 mg/kg ([1]; session 4 (every 15 minutes)): 20%
responders at 600 mg/kg ([1]; session 5 (every 15 minutes)): 20%
responders at 600 mg/kg [1, 6]: 30%
inhibition at 0.001 µg/mL [2, 7]: 0%
inhibition at 0.01 µg/mL [2, 7]: 3.01%
inhibition at 0.1 µg/mL [2, 7]: 32.8%
inhibition at 0.001 µg/mL [2, 8]: 16.9%
inhibition at 0.01 µg/mL [2, 8]: 8.14%
inhibition at 0.1 µg/mL [2, 8]: 80.5%
activation at 0.001 µg/mL [2, 9]: 0%
activation at 0.01 µg/mL [2, 9]: 13.7%
activation at 0.1 µg/mL [2, 9]: 34.1%
activation at 0.001 µg/mL [2, 10]: 22.2%
activation at 0.01 µg/mL [2, 10]: 7.33%
activation at 0.1 µg/mL [2, 10]: 6.91%
Contractile force, Mean ± S.E. ([3]; 1·10^-5 g/lt): 38.2 ± 4.75%
Contractile force, Mean ± S.E. ([3]; 1·10^-6 g/lt): 27.8 ± 4.71%
Contractile force, Mean ± S.E. ([3]; 5·10^-6 g/lt): 33.4 ± 3.08%
Coronary flow, Mean ± S.E. ([5]; 1·10^-5 g/lt): 84.68 ± 7.20%
Coronary flow, Mean ± S.E. ([5]; 1·10^-6 g/lt): 78.15 ± 7.21%
Coronary flow, Mean ± S.E. ([5]; 5·10^-6 g/lt): 72.20 ± 12.73%

CCC(=O)OC(CC(=O)[O-])C[N+](C)(C)C (racemic) [propionyl-d,l-carnitine]
responders at 300 mg/kg ([1]; session 1 (every 15 minutes)): 0%
responders at 300 mg/kg ([1]; session 2 (every 15 minutes)): 0%
responders at 300 mg/kg ([1]; session 3 (every 15 minutes)): 0%
responders at 300 mg/kg ([1]; session 4 (every 15 minutes)): 10%
responders at 300 mg/kg ([1]; session 5 (every 15 minutes)): 20%
responders at 300 mg/kg ([1]; session 6 (every 15 minutes)): 40%
responders at 400 mg/kg ([1]; session 1 (every 15 minutes)): 0%
responders at 400 mg/kg ([1]; session 2 (every 15 minutes)): 0%
responders at 400 mg/kg ([1]; session 3 (every 15 minutes)): 10%
responders at 400 mg/kg ([1]; session 4 (every 15 minutes)): 20%
responders at 400 mg/kg ([1]; session 5 (every 15 minutes)): 20%
responders at 400 mg/kg [1, 6]: 40%
responders at 600 mg/kg ([1]; session 1 (every 15 minutes)): 0%
responders at 600 mg/kg ([1]; session 2 (every 15 minutes)): 10%
responders at 600 mg/kg ([1]; session 3 (every 15 minutes)): 20%
responders at 600 mg/kg ([1]; session 4 (every 15 minutes)): 30%
responders at 600 mg/kg ([1]; session 5 (every 15 minutes)): 40%
responders at 600 mg/kg [1, 6]: 40%
inhibition at 0.001 µg/mL [2, 7]: 2.24%
inhibition at 0.01 µg/mL [2, 7]: 28.4%
inhibition at 0.1 µg/mL [2, 7]: 14.7%
inhibition at 0.001 µg/mL [2, 8]: 10.7%
inhibition at 0.01 µg/mL [2, 8]: 11.4%
inhibition at 0.1 µg/mL [2, 8]: 7.65%
activation at 0.001 µg/mL [2, 9]: 8.16%
activation at 0.01 µg/mL [2, 9]: 14%
activation at 0.1 µg/mL [2, 9]: 19.3%
activation at 0.001 µg/mL [2, 10]: 3.57%
activation at 0.01 µg/mL [2, 10]: 51.3%
activation at 0.1 µg/mL [2, 10]: 52.1%
Contractile force, Mean ± S.E. ([3]; 1·10^-5 g/lt): 60.1 ± 3.12%
Contractile force, Mean ± S.E. ([3]; 1·10^-6 g/lt): 32.0 ± 5.06%
Contractile force, Mean ± S.E. ([3]; 5·10^-6 g/lt): 38.4 ± 4.86%
Coronary flow, Mean ± S.E. ([5]; 1·10^-5 g/lt): 89.27 ± 7.24%
Coronary flow, Mean ± S.E. ([5]; 1·10^-6 g/lt): 80.61 ± 7.56%
Coronary flow, Mean ± S.E. ([5]; 5·10^-6 g/lt): 78.76 ± 11.03%

— patent publication US4194006A, “Therapeutic application of acetyl-d,l-carnitine and other acyl derivatives of d,l-carnitine” (priority 1977, dated 1980)
